Assays:
[1] = test system: Erysiphe graminis f. sp. tritici; experiment: Efficacy against Erysiphe graminis f. sp. tritici on wheat plants (preventive spray); type: in vivo; details: Blumeria graminis, grading 7 to 14 days after contamination
Description: (§1) The active ingredients tested are prepared by potter homogenisation in a mixture of acetone/tween/water. This suspension is then diluted with water to obtain the desired active material concentration.
(§2) Wheat plants (Audace variety) in starter cups, sown on 50/50 peat soil-pozzolana substrate and grown at 12° C., are treated at the 1-leaf stage (10 cm tall) by spraying with the aqueous suspension described above.
(§3) Plants, used as controls, are treated with an aqueous solution not containing the active material.
After 24 hours, the plants are contaminated by dusting them with Erysiphe graminis f. sp. tritici spores, the dusting being carried out using diseased plants.
Grading is carried out 7 to 14 days after the contamination, in comparison with the control plants.
(§4) The formulated compounds are diluted with water to obtain the desired active material concentration.
as §2, with “above. Plants, used as controls, are treated with an aqueous solution not containing the active material.” for “above.”

Alternaria brassicae [2] = experiment: Efficacy against Alternaria brassicae (in vitro), growth on PDA medium; type: cell-based; details: Alternaria brassicae, 336 h, radial growth after 14 days
Description: The growth of Alternaria brassicae was followed on PDA medium containing the compounds alone or in mixtures. The PDA medium is prepared by mixing 39 grams of PDA (Merck) in 1 litter of demineralised water. The medium is sterilized by autoclave 15 minutes at 121° C. The compounds are dissolved in acetone and added to the medium before pouring it in Petri dishes. After medium drying, the fungus is inoculated on the medium and allowed to growth at 19° C. The percentage of efficacy is noted after 14 days of growth (measurement of the radial growth) of the fungus in comparison with a control. […]

Sphaerotheca fuliginea = experiment: Efficacy against Sphaerotheca fuliginea on gherkin plants (preventive spray); type: in vivo; details: Podosphaera fuliginea, 504 h, grading 21 days after contamination
Description: as §1
(§5) Gherkin plants (Vert petit de Paris variety) in starter cups, sown on a 50/50 peat soil-pozzolana substrate and grown at 20° C./23° C., are treated at the 2-leaves stage by spraying with the aqueous suspension described above. Plants, used as controls, are treated with an aqueous solution not containing the active material.
After 24 hours, the plants are contaminated by spraying them with an aqueous suspension of Sphaerotheca fuliginea spores (100 000 spores per ml). The spores are collected from a contaminated plants. The contaminated gherkin plants are incubated at about 20° C./25° C. and at 60/70% relative humidity.
Grading (% of efficacy) is carried out 21 days after the contamination, in comparison with the control plants.

Alternaria brassicae [3] = experiment: Efficacy against Alternaria brassicae on radish plants (preventive spray); type: in vivo; details: Example 13, dose 4 ppm, grading 6 to 7 days after contamination
Description: as §4
Radish plants (Pernot variety) in starter cups, sown on a 50/50 peat soil-pozzolana substrate and grown at 18-20° C., are treated at the cotyledon stage by spraying with the aqueous suspension described above.
as §3
After 24 hours, the plants are contaminated by spraying them with an aqueous suspension of Alternaria brassicae spores (40,000 spores per cm^3). The spores are collected from a 12-13-day-old culture.
The contaminated radish plants are incubated for 6-7 days at about 18° C., under a humid atmosphere.
Grading is carried out 6 to 7 days after the contamination, in comparison with the control plants.

Pyrenophora teres = experiment: Efficacy against Pyrenophora teres on barley plants (preventive spray); type: in vivo; details: 288 h, grading 12 days after contamination
Description: as §1
as §5, with “Barley” for “Gherkin”, “(Express” for “(Vert petit de Paris”, “12°” for “20° C./23°”, “1-leaf” for “2-leaves”, “stage (10 cm tall)” for “stage”
After 24 hours, the plants are contaminated by spraying them with an aqueous suspension of Pyrenophora teres spores (12 000 spores per ml). The spores are collected from a 12-day-old culture. The contaminated barley plants are incubated for 24 hours at about 20° C. and at 100% relative humidity, and then for 12 days at 80% relative humidity.
Grading (% of efficacy) is carried out 12 days after the contamination, in comparison with the control plants.

Botrytis cinerea = experiment: Efficacy against Botrytis cinerea on gherkin plants (preventive spray); type: in vivo; details: Botrytis cinerea, grading 5 to 7 days after contamination
Description: as §1
as §5, with “(Petit vert” for “(Vert petit”, “18-20°” for “20° C./23°”, “cotyledon Z11” for “2-leaves”
After 24 hours, the plants are contaminated by depositing drops of an aqueous suspension of Botrytis cinerea spores (150,000 spores per ml) on upper surface of the leaves. The spores are collected from a 15-day-old culture and are suspended in a nutrient solution composed of: • 20 g/L of gelatine • 50 g/L of cane sugar • 2 g/L of NH4NO3 • 1 g/L of KH2PO4
The contaminated gherkin plants are settled for 5/7 days in a climatic room at 15-11° C. (day/night) and at 80% relative humidity. Grading is carried out 5 to 7 days after contamination, in comparison with the control plants.
as §5, with “(Petit vert” for “(Vert petit”, “18-20°” for “20° C./23°”, “cotyledon Z 11” for “2-leaves”
as §4

O=C(NCCc1ncc(C(F)(F)F)cc1Cl)c1ccccc1C(F)(F)F [Compound 1, N-{2-[3-chloro-5-(trifluoromethyl)-2-pyridinyl]ethyl}-2-trifluoromethylbenzamide]
Emax at 125 ppm ([1]; Example 4, dose 125 ppm): 20%
Emax at 250 g/ha ([1]; Example 9, dose 250 g/ha, formulated compounds): 50%
Emax at 0.025 ppm (Alternaria brassicae [2]; Example 2, dose 0.025 ppm): 34%
Emax at 0.05 ppm (Alternaria brassicae [2]; Example 2, dose 0.05 ppm): 45%
Emax at 0.1 ppm (Alternaria brassicae [2]; Example 2, dose 0.1 ppm): 53%
Emax at 0.25 ppm (Alternaria brassicae [2]; Example 2, dose 0.25 ppm): 76%
Emax at 0.5 ppm (Alternaria brassicae [2]; Example 2, dose 0.5 ppm): 90%
Emax at 4 ppm (Sphaerotheca fuliginea; Example 11, dose 4 ppm): 10%
Emax at 8 ppm (Sphaerotheca fuliginea; Example 11, dose 8 ppm): 15%
Emax at 15 ppm (Sphaerotheca fuliginea; Example 11, dose 15 ppm): 25%
Emax at 7.8 ppm (Sphaerotheca fuliginea; Example 12, dose 7.8 ppm): 10%
Emax at 15.6 ppm (Sphaerotheca fuliginea; Example 12, dose 15.6 ppm): 18%
Emax at 31.2 ppm (Sphaerotheca fuliginea; Example 12, dose 31.2 ppm): 86%
Emax at 4 ppm (Alternaria brassicae [3]): 40%
Emax at 4 g/ha (Pyrenophora teres; Example 1, dose 4 g/ha): 20%
Emax at 8 g/ha (Pyrenophora teres; Example 1, dose 8 g/ha): 50%
Emax at 37 ppm (Botrytis cinerea; Example 5, dose 37 ppm): 0%
Emax at 111 ppm (Botrytis cinerea; Example 5, dose 111 ppm): 60%
Emax at 333 ppm (Botrytis cinerea; Example 5, dose 333 ppm): 90%
Emax at 37 ppm (Botrytis cinerea; Example 6, dose 37 ppm): 0%
Emax at 111 ppm (Botrytis cinerea; Example 6, dose 111 ppm): 60%
Emax at 333 ppm (Botrytis cinerea; Example 6, dose 333 ppm): 100%
Emax at 12 ppm (Botrytis cinerea; Example 7, dose 12 ppm): 0%
Emax at 37 ppm (Botrytis cinerea; Example 7, dose 37 ppm): 40%
Emax at 111 ppm (Botrytis cinerea; Example 7, dose 111 ppm): 92%
Emax at 37 ppm (Botrytis cinerea; Example 8, dose 37 ppm): 3%
Emax at 111 ppm (Botrytis cinerea; Example 8, dose 111 ppm): 58%
Emax at 333 ppm (Botrytis cinerea; Example 8, dose 333 ppm): 75%
Emax at 37 ppm (Botrytis cinerea; Example 10, dose 37 ppm): 72%
Emax at 31.2 ppm (Botrytis cinerea; Example 14, dose 31.2 ppm, formulated compounds): 20%
Emax at 62.5 ppm (Botrytis cinerea; Example 14, dose 62.5 ppm, formulated compounds): 40%

— patent US9445590B2, “Fungicidal composition comprising a pyridylethylbenzamide derivative and a compound capable of inhibiting the transport of electrons of the respiratory chain in phytopathogenic fungal organisms” (BAYER INTELLECTUAL PROPERTY GMBH, priority 2004, dated 2016)
